Source: patent publication US20220184059A1, “PROCESS FOR PREPARING SPHERICAL AGGLOMERATES OF TIMAPIPRANT” (Chiesi Farmaceutici S.p.A., priority 2018, published 2022)
“And” between values parts separate entries of the source, which are not always exact repeats. Identical values can stand only once. Like-named read-outs stand apart in the source and are kept apart here.

Columns and labels:
[1] = Specific surface area (SSA) by BET nitrogen adsorption; format: physicochemical
Protocol: The specific surface areas (SSA) of spherical agglomerates of timapiprant obtained according to Examples 3, 5,7 and the micronized timapiprant were measured was determined by BET nitrogen adsorption using the TriStar of Micromeritics apparatus according to following parameters: • Isotherm, Adsorbing/Desorbing Run: 0 to 1 p/p0 • Vials: ⅜ Inch, Degasing Pre-analysis: 2 hours at 40° C., Nitrogen as adsorbate • Preparation: Evacuation Rate 10 mmHg/s; Unrestricted evacuation from 5 mmHg • Vacuum setpoint: 10 mmHg, Evacuation time: 1 hour • Leak Test Duration: 120 s, Outgas Test Duration: 180 s • Measure p0 at intervals during the analysis, Enter the analysis bath temperature: […]77 kelvin • Equilibration Interval: 5 s; Minimum Equilibration Delay at p/p0>=0.995 per 600 s.

[2] = Primary particle size distribution by laser diffraction after break up of spherical agglomerates; format: physicochemical; settings: primary particles; for PSD d (0.1), Mean result / PSD d (0.5), Mean result: mean of 10 acquisitions
Protocol: The primary particle size distribution results are produced by means of a Malvern 2000 laser diffraction equipment by the analysis of the primary particles in suspension.
The particle size distribution laser diffraction measures were performed using a Malvern Mastersizer 2000 equipped with a Hydro 2000S cell for the wet suspension of the Timapiprant primary particles. The spherical agglomerates obtained according to the Examples 3 and 5, were dispersed in water by means of 10 minutes sonication and then added to the cell, previously filled with water, until an obscuration within 5-10% was obtained. The stirring rate was set at 1500 rpm and each of the suspensions produced were analysed by 10 acquisitions, the results are reported in Tables 1 and 2.

[3] = Flowability of blend material with excipients; format: physicochemical; settings: for Flowability (s/100 g): blend material of API with excipients of Table 3; for Flow properties of blend: blend material of API with excipients
Protocol: The spherical agglomerates of timapiprant or the micronized timapiprant, together with the microcrystalline cellulose, the croscarmellose sodium, the poloxamer, the sodium lauryl sulphate and the colloidal silicon dioxide in the above amounts, are sieved in a sieve of 1.2 mm. The lactose monohydrate is then added, and the resulting mixture is blended in a free fall blender for at least 15 minutes. The magnesium stearate is added to the obtained mixture which is further blended in the free fall blender for additional 3 minutes.

[4] = target: T1, prostaglandin D2 receptor (CRTH2) (Homo sapiens, UniProt Q9Y5Y4); settings: cited from earlier work
T1 sequence (Q9Y5Y4 1-395): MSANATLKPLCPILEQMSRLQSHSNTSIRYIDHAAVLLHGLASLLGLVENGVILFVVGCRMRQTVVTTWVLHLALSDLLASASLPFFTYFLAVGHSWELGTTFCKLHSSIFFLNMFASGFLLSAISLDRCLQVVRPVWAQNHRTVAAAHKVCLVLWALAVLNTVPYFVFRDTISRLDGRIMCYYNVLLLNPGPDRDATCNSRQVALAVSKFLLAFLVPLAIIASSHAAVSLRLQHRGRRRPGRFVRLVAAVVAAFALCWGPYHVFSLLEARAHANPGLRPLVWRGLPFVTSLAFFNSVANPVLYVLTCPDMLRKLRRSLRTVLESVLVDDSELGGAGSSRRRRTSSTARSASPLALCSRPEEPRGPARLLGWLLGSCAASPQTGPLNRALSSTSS

[5] = tested on: human Th2 lymphocytes and eosinophils; settings: cited from earlier work
[6] = tested on: patients with atopic eosinophilic asthma; settings: cited from earlier work
[7] = agglomerates dispersed in water by 10 minutes sonication, single acquisition

## Cc1c(Cc2ccc3ccccc3n2)c2cc(F)ccc2n1CC(=O)O [Example 3, (5-fluoro-2-methyl-3-quinolin-2-yl-methyl-indol-1-yl)acetic acid]
[1]; listed as Spherical agglomerates of timapiprant of Example 3
  SSA (m^2/g): 13.1 m^2/g
[2]; [7]
  PSD d (0.1): 0.28 μm
  PSD d (0.5): 0.56 μm
[2]
  PSD d (0.1), Mean result: 0.28 μm
  PSD d (0.5), Mean result: 0.56 μm

## Cc1c(Cc2ccc3ccccc3n2)c2cc(F)ccc2n1CC(=O)O [Example 5, (5-fluoro-2-methyl-3-quinolin-2-yl-methyl-indol-1-yl)acetic acid]
[1]; listed as Spherical agglomerates of timapiprant of Example 5
  SSA (m^2/g): 10.1 m^2/g
[3]; listed as Spherical agglomerates of timapirpant
  Flowability (s/100 g): 4 sec s/100 g
[3]; listed as spherical agglomerates of timapiprant
  Flow properties of blend: good flowability
[2]; [7]
  PSD d (0.5): 0.64 μm
[2]
  PSD d (0.1), Mean result: 0.31 μm
  PSD d (0.5), Mean result: 0.64 μm

## Cc1c(Cc2ccc3ccccc3n2)c2cc(F)ccc2n1CC(=O)O [Example 7, (5-fluoro-2-methyl-3-quinolin-2-yl-methyl-indol-1-yl)acetic acid]
[1]; listed as Spherical agglomerates of timapiprant of Example 7
  SSA (m^2/g): 15.5 m^2/g

## Cc1c(Cc2ccc3ccccc3n2)c2cc(F)ccc2n1CC(=O)O [Micronized Timapiprant, reference compound]
[1]
  SSA (m^2/g): 8.0 m^2/g and 7.8 m^2/g
[1]; listed as micronized timapiprant
  SSA (m^2/g): less than 8.5 m^2/g
[3]
  Flow properties of blend: very poor flow properties
  Flowability (s/100 g): ∞

## Cc1c(Cc2ccc3ccccc3n2)c2cc(F)ccc2n1CC(=O)O [timapiprant]
[4]
  CRTH2 antagonist activity: potent, selective, and orally active prostaglandin D2 receptor (CRTH2) antagonist
[5]
  Inhibition of mast cell-dependent activation: inhibits mast cell-dependent activation of both human Th2 lymphocytes and eosinophils
[6]
  Clinical efficacy: effective in reducing airway inflammation and improving lung function and quality of life
